Measurements reported in patent publication US7807658B2, “Use of GabaB receptor agonists” (AstraZeneca AB, priority 1999, dated 2010).

- melting point: 126 to 127 °C
SMILES: NCC(=O)C[PH](=O)O
